Results as given in paper PMC6886798, “Expression of myeloid Src-family kinases is associated with poor prognosis in AML and influences Flt3-ITD kinase inhibitor acquired resistance” (PLoS ONE, 2019).

How the values were obtained:
Test in all cases: KINOMEscan
Format in all cases: binding
Settings in all cases: 1.0 µM
KIT(D816V) = molecular target: T1, KIT(D816V) (Homo sapiens, UniProt P10721, D816V)
T1 construct: purchased Eurofins/DiscoverX KINOMEscan scanMAX
Protocol: (§1) Kinase retention to the immobilized ligand is then measured using quantitative real-time PCR for each kinase-specific DNA barcode.

PRKG2 = molecular target: T2, PRKG2 (Homo sapiens, UniProt Q13237)
T2 construct: purchased Eurofins/DiscoverX KINOMEscan scanMAX
Protocol: as §1

BMPR1A = molecular target: T3, BMPR1A (Homo sapiens, UniProt P36894)
T3 construct: purchased Eurofins/DiscoverX KINOMEscan scanMAX
Protocol: as §1

GRK2 = molecular target: T4, GRK2 (Homo sapiens, UniProt P25098)
T4 construct: purchased Eurofins/DiscoverX KINOMEscan scanMAX
Protocol: as §1

EPHA5 = molecular target: T5, EPHA5 (Homo sapiens, UniProt P54756)
T5 construct: purchased Eurofins/DiscoverX KINOMEscan scanMAX
Protocol: as §1

FES = molecular target: T6, FES (Homo sapiens, UniProt P07332)
T6 construct: purchased Eurofins/DiscoverX KINOMEscan scanMAX
Protocol: as §1

PIP5K2B = molecular target: T7, PIP5K2B (Homo sapiens, UniProt P78356)
T7 construct: purchased Eurofins/DiscoverX KINOMEscan scanMAX
Protocol: as §1

BLK = molecular target: T8, BLK (Homo sapiens, UniProt P51451)
T8 construct: purchased Eurofins/DiscoverX KINOMEscan scanMAX
T8 sequence (P51451 whole entry): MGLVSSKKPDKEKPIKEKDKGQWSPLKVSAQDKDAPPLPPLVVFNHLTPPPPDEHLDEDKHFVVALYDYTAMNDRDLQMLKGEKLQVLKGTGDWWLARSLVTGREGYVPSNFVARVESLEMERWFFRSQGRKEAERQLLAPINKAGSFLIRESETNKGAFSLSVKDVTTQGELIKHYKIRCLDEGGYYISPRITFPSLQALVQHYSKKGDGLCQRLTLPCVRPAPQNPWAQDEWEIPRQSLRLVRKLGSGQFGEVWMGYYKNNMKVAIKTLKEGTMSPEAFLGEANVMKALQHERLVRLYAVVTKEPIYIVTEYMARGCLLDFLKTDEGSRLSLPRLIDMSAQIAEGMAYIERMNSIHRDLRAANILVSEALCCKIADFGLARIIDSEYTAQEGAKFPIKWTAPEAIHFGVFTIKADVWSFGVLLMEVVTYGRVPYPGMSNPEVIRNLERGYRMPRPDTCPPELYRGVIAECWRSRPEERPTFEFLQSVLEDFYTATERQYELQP
Protocol: as §1

FLT3-autoinhibited = molecular target: T9, FLT3-autoinhibited (Homo sapiens, UniProt P36888)
T9 construct: purchased Eurofins/DiscoverX KINOMEscan scanMAX
Protocol: as §1

CDKL5 = molecular target: T10, CDKL5 (Homo sapiens, UniProt O76039)
T10 construct: purchased Eurofins/DiscoverX KINOMEscan scanMAX
Protocol: as §1

PHKG1 = molecular target: T11, PHKG1 (Homo sapiens, UniProt Q16816)
T11 construct: purchased Eurofins/DiscoverX KINOMEscan scanMAX
Protocol: as §1

BUB1 = molecular target: T12, BUB1 (Homo sapiens, UniProt O43683)
T12 construct: purchased Eurofins/DiscoverX KINOMEscan scanMAX
Protocol: as §1

EPHA3 = molecular target: T13, EPHA3 (Homo sapiens, UniProt P29320)
T13 construct: purchased Eurofins/DiscoverX KINOMEscan scanMAX
T13 sequence (P29320 21-983): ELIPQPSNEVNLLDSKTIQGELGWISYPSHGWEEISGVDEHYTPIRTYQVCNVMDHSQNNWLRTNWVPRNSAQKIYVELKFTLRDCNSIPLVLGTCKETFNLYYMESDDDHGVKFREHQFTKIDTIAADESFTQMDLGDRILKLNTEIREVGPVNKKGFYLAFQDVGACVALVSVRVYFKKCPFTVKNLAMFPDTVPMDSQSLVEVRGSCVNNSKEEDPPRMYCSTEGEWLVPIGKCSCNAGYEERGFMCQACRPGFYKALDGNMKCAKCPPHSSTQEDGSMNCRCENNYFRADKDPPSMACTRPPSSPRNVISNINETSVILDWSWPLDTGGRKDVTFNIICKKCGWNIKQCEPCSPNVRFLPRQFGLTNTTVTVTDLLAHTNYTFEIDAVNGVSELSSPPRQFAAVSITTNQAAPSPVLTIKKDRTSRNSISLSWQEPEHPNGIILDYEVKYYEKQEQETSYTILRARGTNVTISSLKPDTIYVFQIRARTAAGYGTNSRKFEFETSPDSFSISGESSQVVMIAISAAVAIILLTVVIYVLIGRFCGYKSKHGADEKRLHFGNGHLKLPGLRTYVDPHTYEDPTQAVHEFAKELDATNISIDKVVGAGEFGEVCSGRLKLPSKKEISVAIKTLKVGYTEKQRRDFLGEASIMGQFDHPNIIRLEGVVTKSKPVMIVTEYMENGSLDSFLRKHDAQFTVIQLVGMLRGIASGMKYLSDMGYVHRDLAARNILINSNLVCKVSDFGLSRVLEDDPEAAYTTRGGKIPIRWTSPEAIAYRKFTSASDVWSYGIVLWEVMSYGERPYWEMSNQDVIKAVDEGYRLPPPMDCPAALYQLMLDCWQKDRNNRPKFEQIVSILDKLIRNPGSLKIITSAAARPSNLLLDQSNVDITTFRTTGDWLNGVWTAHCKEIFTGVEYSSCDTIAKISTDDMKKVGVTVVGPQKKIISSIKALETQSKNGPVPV
Protocol: as §1

SRC = molecular target: T14, SRC (Homo sapiens, UniProt P12931)
T14 construct: purchased Eurofins/DiscoverX KINOMEscan scanMAX
T14 sequence (P12931 whole entry): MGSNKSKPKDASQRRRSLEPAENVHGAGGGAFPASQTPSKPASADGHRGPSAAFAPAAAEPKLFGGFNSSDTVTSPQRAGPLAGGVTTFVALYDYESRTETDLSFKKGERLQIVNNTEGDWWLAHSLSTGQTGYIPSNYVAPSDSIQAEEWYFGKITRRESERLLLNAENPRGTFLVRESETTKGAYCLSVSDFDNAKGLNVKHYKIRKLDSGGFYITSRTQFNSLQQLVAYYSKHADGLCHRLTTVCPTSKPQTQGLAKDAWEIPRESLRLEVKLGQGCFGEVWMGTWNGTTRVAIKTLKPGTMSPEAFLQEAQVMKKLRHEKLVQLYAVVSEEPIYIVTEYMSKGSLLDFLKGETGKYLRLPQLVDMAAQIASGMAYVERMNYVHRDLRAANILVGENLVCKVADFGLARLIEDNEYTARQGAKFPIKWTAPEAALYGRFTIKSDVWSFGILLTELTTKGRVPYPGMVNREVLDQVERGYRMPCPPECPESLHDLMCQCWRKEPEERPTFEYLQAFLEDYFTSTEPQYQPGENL
Protocol: as §1

p38-delta = molecular target: T15, p38-delta (Homo sapiens, UniProt O15264)
T15 construct: purchased Eurofins/DiscoverX KINOMEscan scanMAX
Protocol: as §1

BRSK1 = molecular target: T16, BRSK1 (Homo sapiens, UniProt Q8TDC3)
T16 construct: purchased Eurofins/DiscoverX KINOMEscan scanMAX
Protocol: as §1

JNK1 = molecular target: T17, JNK1 (Homo sapiens, UniProt P45983)
T17 construct: purchased Eurofins/DiscoverX KINOMEscan scanMAX
Protocol: as §1

MEK1 = molecular target: T18, MEK1 (Homo sapiens, UniProt Q02750)
T18 construct: purchased Eurofins/DiscoverX KINOMEscan scanMAX
Protocol: as §1

p38-alpha = molecular target: T19, p38-alpha (Homo sapiens, UniProt Q16539)
T19 construct: purchased Eurofins/DiscoverX KINOMEscan scanMAX
Protocol: as §1

LOK = molecular target: T20, LOK (Homo sapiens, UniProt O94804)
T20 construct: purchased Eurofins/DiscoverX KINOMEscan scanMAX
T20 sequence (O94804 whole entry): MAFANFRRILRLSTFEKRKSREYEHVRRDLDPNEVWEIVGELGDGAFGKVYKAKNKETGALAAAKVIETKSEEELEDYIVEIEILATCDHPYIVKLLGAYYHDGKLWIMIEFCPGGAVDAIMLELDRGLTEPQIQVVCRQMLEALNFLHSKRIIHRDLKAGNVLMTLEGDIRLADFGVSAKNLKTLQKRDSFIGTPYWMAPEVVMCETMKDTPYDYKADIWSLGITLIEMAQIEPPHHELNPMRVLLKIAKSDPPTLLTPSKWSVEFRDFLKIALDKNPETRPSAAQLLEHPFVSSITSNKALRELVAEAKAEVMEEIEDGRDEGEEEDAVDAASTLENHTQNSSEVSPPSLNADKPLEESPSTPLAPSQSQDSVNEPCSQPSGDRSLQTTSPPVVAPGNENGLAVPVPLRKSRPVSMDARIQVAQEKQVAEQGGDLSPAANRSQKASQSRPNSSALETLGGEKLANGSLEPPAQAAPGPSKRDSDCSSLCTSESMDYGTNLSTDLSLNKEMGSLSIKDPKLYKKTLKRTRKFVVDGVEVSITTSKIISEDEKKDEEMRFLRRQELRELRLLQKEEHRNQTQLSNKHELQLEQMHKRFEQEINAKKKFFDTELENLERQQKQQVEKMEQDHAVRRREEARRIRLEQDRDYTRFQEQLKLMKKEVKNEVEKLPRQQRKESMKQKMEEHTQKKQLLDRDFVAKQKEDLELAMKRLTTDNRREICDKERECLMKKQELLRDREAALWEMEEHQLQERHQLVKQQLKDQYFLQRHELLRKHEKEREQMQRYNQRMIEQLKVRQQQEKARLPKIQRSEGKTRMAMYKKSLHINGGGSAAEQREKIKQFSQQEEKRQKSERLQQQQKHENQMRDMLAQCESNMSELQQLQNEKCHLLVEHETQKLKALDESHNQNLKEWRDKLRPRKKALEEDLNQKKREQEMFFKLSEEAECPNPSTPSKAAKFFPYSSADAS
Protocol: as §1

ZAK = molecular target: T21, ZAK (Homo sapiens, UniProt Q9NYL2)
T21 construct: purchased Eurofins/DiscoverX (KINOMEscan scanMAX service)
Protocol: as §1

ROCK1 = molecular target: T22, ROCK1 (Homo sapiens, UniProt Q13464)
T22 construct: purchased Eurofins/DiscoverX KINOMEscan scanMAX
T22 sequence (Q13464 whole entry): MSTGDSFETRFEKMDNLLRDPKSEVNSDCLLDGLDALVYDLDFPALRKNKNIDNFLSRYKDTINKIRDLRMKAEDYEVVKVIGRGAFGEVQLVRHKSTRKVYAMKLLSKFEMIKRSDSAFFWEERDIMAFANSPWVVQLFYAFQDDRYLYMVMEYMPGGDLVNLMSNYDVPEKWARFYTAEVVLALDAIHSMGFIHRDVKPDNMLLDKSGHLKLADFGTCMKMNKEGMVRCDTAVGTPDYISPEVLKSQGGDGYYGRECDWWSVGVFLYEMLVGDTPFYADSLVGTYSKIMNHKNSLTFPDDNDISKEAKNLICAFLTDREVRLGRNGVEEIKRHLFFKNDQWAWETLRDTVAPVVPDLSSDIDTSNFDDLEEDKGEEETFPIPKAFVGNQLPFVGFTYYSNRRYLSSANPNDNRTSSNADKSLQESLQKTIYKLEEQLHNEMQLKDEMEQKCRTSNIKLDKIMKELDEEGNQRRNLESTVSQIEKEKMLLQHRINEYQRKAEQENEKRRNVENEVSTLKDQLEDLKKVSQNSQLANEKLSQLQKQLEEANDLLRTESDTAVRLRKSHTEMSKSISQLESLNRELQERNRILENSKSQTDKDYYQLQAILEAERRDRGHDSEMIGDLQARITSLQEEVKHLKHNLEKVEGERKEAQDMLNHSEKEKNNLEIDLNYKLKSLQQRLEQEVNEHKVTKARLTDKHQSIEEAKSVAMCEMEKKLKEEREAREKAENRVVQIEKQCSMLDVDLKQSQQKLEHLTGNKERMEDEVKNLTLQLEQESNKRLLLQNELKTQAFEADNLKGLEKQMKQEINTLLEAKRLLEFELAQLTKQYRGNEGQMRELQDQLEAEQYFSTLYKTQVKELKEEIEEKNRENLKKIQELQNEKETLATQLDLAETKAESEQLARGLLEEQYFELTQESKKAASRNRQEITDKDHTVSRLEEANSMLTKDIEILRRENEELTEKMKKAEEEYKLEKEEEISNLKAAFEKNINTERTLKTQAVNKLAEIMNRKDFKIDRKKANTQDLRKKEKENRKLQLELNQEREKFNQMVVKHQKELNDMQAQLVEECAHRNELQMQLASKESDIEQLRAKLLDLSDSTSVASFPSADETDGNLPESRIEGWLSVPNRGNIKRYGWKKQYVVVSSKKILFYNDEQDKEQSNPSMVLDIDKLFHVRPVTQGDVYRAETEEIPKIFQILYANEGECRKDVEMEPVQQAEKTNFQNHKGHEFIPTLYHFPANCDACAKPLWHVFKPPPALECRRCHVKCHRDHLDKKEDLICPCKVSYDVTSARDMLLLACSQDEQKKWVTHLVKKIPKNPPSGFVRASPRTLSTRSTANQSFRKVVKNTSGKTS
Protocol: as §1

DAPK3 = molecular target: T23, DAPK3 (Homo sapiens, UniProt O43293)
T23 construct: purchased Eurofins/DiscoverX KINOMEscan scanMAX
Protocol: as §1

[1] = molecular target: T24, ABL1(T315I)-phosphorylated (Homo sapiens, UniProt P00519, T315I)
T24 construct: purchased Eurofins/DiscoverX KINOMEscan scanMAX
Protocol: as §1

CSNK2A2 = molecular target: T25, CSNK2A2 (Homo sapiens, UniProt P19784)
T25 construct: purchased Eurofins/DiscoverX KINOMEscan scanMAX
Protocol: as §1

S6K1 = molecular target: T26, S6K1 (Homo sapiens, UniProt P23443)
T26 construct: purchased Eurofins/DiscoverX KINOMEscan scanMAX
Protocol: as §1

ZAP70 = molecular target: T27, ZAP70 (Homo sapiens, UniProt P43403)
T27 construct: purchased Eurofins/DiscoverX (KINOMEscan scanMAX service)
Protocol: as §1

CLK1 = molecular target: T28, CLK1 (Homo sapiens, UniProt P49759)
T28 construct: purchased Eurofins/DiscoverX KINOMEscan scanMAX
Protocol: as §1

HASPIN = molecular target: T29, HASPIN (Homo sapiens, UniProt Q8TF76)
T29 construct: purchased Eurofins/DiscoverX KINOMEscan scanMAX
Protocol: as §1

GRK7 = molecular target: T30, GRK7 (Homo sapiens, UniProt Q8WTQ7)
T30 construct: purchased Eurofins/DiscoverX KINOMEscan scanMAX
Protocol: as §1

CAMK1 = molecular target: T31, CAMK1 (Homo sapiens, UniProt Q14012)
T31 construct: purchased Eurofins/DiscoverX KINOMEscan scanMAX
Protocol: as §1

MAPKAPK5 = molecular target: T32, MAPKAPK5 (Homo sapiens, UniProt Q8IW41)
T32 construct: purchased Eurofins/DiscoverX KINOMEscan scanMAX
T32 sequence (Q8IW41 whole entry): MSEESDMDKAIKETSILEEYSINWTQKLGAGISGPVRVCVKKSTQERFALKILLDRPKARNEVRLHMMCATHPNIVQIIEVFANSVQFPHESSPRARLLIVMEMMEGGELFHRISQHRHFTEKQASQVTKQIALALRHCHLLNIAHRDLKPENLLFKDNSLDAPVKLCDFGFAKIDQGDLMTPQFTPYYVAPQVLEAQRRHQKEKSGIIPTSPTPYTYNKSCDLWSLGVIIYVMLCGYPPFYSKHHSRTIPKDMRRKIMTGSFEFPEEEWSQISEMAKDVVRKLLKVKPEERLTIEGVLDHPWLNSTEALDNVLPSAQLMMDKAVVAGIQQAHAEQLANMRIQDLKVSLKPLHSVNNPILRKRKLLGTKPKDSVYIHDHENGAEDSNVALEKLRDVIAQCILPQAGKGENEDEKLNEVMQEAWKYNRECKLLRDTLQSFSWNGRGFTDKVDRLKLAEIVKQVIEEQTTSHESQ
Protocol: as §1

[2] = molecular target: T33, RPS6KA4(Kin.Dom.1-N-terminal) (Homo sapiens, UniProt O75676)
T33 construct: RPS6KA4(Kin.Dom.1-N-terminal); purchased Eurofins/DiscoverX KINOMEscan scanMAX
Protocol: as §1

[3] = molecular target: T34, JAK2(JH1domain-catalytic) (Homo sapiens, UniProt O60674)
T34 construct: JAK2(JH1domain-catalytic); purchased Eurofins/DiscoverX KINOMEscan scanMAX
Protocol: as §1

EPHB6 = molecular target: T35, EPHB6 (Homo sapiens, UniProt O15197)
T35 construct: purchased Eurofins/DiscoverX KINOMEscan scanMAX
Protocol: as §1

DYRK1B = molecular target: T36, DYRK1B (Homo sapiens, UniProt Q9Y463)
T36 construct: purchased Eurofins/DiscoverX KINOMEscan scanMAX
Protocol: as §1

HIPK2 = molecular target: T37, HIPK2 (Homo sapiens, UniProt Q9H2X6)
T37 construct: purchased Eurofins/DiscoverX KINOMEscan scanMAX
Protocol: as §1

p38-gamma = molecular target: T38, p38-gamma (Homo sapiens, UniProt P53778)
T38 construct: purchased Eurofins/DiscoverX KINOMEscan scanMAX
Protocol: as §1

PIK3CA(H1047L) = molecular target: T39, PIK3CA(H1047L) (Homo sapiens, UniProt P42336, H1047L)
T39 construct: purchased Eurofins/DiscoverX KINOMEscan scanMAX
Protocol: as §1

DRAK1 = molecular target: T40, DRAK1 (Homo sapiens, UniProt Q9UEE5)
T40 construct: purchased Eurofins/DiscoverX KINOMEscan scanMAX
Protocol: as §1

AKT1 = molecular target: T41, AKT1 (Homo sapiens, UniProt P31749)
T41 construct: purchased Eurofins/DiscoverX KINOMEscan scanMAX
Protocol: as §1

NDR1 = molecular target: T42, NDR1 (Homo sapiens, UniProt Q15208)
T42 construct: purchased Eurofins/DiscoverX KINOMEscan scanMAX
Protocol: as §1

For `CN1CCN(C2CCC(n3cc(-c4ccc(Oc5ccccc5)cc4)c4c(N)ncnc43)CC2)CC1` (stereo not drawn) [A-419259], the “% Control” value (KIT(D816V)) was 70%, the “% Control” value (PRKG2) was 100% and the “% Control” value (BMPR1A) was 100%. For the same compound, the “% Control” value (GRK2) was 100%, the “% Control” value (EPHA5) was 80% and the “% Control” value (FES) was 100%. For the same compound, the “% Control” value (PIP5K2B) was 94%, the “% Control” value (BLK) was 0.05% and the “% Control” value (FLT3-autoinhibited) was 3.4%. For the same compound, the “% Control” value (CDKL5) was 100%, the “% Control” value (PHKG1) was 99% and the “% Control” value (BUB1) was 100%. The “% Control” value (EPHA3) was 95%, the “% Control” value (SRC) was 0.1% and the “% Control” value (p38-delta) was 99%. The “% Control” value (BRSK1) was 14%, the “% Control” value (JNK1) was 95% and the “% Control” value (MEK1) was 0.1%. For the same compound, the “% Control” value (p38-alpha) was 100%, the “% Control” value (LOK) was 20% and the “% Control” value (ZAK) was 13%. For the same compound, the “% Control” value (ROCK1) was 90%, the “% Control” value (DAPK3) was 100% and the “% Control” value [1] was 83%. The “% Control” value (CSNK2A2) was 66%, the “% Control” value (S6K1) was 27% and the “% Control” value (ZAP70) was 100%. For the same compound, the “% Control” value (CLK1) was 100%, the “% Control” value (HASPIN) was 70% and the “% Control” value (GRK7) was 62%. The “% Control” value (CAMK1) was 92%, the “% Control” value (MAPKAPK5) was 100% and the “% Control” value [2] was 66%. For the same compound, the “% Control” value [3] was 100%, the “% Control” value (EPHB6) was 6.8% and the “% Control” value (DYRK1B) was 21%. For the same compound, the “% Control” value (HIPK2) was 100%, the “% Control” value (p38-gamma) was 100% and the “% Control” value (PIK3CA(H1047L)) was 98%. The “% Control” value (DRAK1) was 65%, the “% Control” value (AKT1) was 100% and the “% Control” value (NDR1) was 68%.
